What was measured:
[1] = system: Glutamate, NMDA, Phencyclidine; experiment: Lead Profiling Screen – Eurofins Panlabs; format: binding, rat
Adrenergic α1B = biological target: T1, Adrenergic α1B (Rattus norvegicus, UniProt P15823); experiment: Lead Profiling Screen – Eurofins Panlabs; format: binding; conditions: read-out: % inh at 10 μM
T1 construct: Eurofins Panlabs (contract screen)

Adrenergic α2A = biological target: T2, Adrenergic α2A (Homo sapiens, UniProt P08913); experiment: Lead Profiling Screen – Eurofins Panlabs; format: binding; conditions: read-out: % inh at 10 μM
T2 construct: Eurofins Panlabs (contract screen)

[2] = biological target: Leukotriene, Cysteinyl CysLT1 (Homo sapiens, UniProt Q9Y271); experiment: Lead Profiling Screen – Eurofins Panlabs; format: binding; conditions: read-out: % inh at 10 μM
human M1 = human M1 (Homo sapiens, UniProt P11229); experiment: Calcium mobilization assay, muscarinic selectivity; format: cell-based
GABAB1A = biological target: T3, GABAB1A (Homo sapiens, UniProt Q9UBS5); experiment: Lead Profiling Screen – Eurofins Panlabs; format: binding; conditions: read-out: % inh at 10 μM
T3 construct: Eurofins Panlabs (contract screen)

Adenosine A1 = biological target: T4, Adenosine A1 (Homo sapiens, UniProt P30542); experiment: Lead Profiling Screen – Eurofins Panlabs; format: binding; conditions: read-out: % inh at 10 μM
T4 construct: Eurofins Panlabs

Nicotinic Acetylcholine = experiment: Lead Profiling Screen – Eurofins Panlabs; format: binding, human
Histamine H3 = Histamine H3 (Homo sapiens, UniProt Q9Y5N1); experiment: Lead Profiling Screen – Eurofins Panlabs; format: binding; conditions: read-out: % inh at 10 μM
[3] = Binding in plasma from rat (equilibrium dialysis); format: in vitro ADME; conditions: fraction unbound, equilibrium dialysis, read-out: rat fu,plasma
Protocol: Binding in plasma from rat and human.
Determination of compounds’ fraction unbound (f u) in plasma from rat and human was conducted in vitro via equilibrium dialysis using HTDialysis membrane plates. Dialysis membranes (four paired strips per HTD assay) were hydrated as described by the manufacturer and inserted into the HTD plate, which was assembled and prepared for sample addition by the dispensing of blank buffer (DPBS, 100 µL/well) into the ‘top half’ of each membrane-split well. Each compound was diluted into plasma from each species (5 µM final concentration), which was aliquoted in triplicate to the ‘bottom half’ of the prepared HTD plate wells. The HTD plate was sealed and incubated for 6 hours at 37 °C. Following incubation, each well (both top and bottom halves) were transferred (20 µL) to the corresponding wells of a 96-shallow-well (V-bottom) plate. The daughter plates were then matrix-matched (buffer side wells received equal volume of plasma, and plasma side wells received equal volume of buffer), and extraction solution (120 µL; acetonitrile containing 50 nM carbamazepine as IS) was added to all wells of both daughter plates to precipitate protein and extract test article. The plates were then sealed and centrifuged (3500 rcf) for 10 minutes at ambient temperature. Supernatant (60 µL) from each well of the daughter plates was then transferred to the corresponding wells of new daughter plates (96-shallow-well, V bottom) containing water (Milli-Q, 60 µL/well), and the plates were sealed in preparation for LC-MS/MS analysis (see below). fu was calculated as (analyte to IS MS peak area ratio from Trans-buffer side) / (analyte to IS MS peak area ratio from Cis-plasma side). Mean values for each species were calculated from 3 replicates.

Thyroid Hormone = experiment: Lead Profiling Screen – Eurofins Panlabs; format: binding, rat
[4] = Intrinsic clearance in rat liver microsomes; format: in vitro ADME
Protocol: Intrinsic Clearance in Rat and Human Liver Microsomes
The in vitro intrinsic clearance (CL int) was investigated in commercially obtained hepatic microsomes from rat and human donors using the substrate depletion (i.e., loss-of-parent vs. time, or t 1/2 method) approach with analyte detection via liquid chromatography-tandem mass spectrometry (LC-MS/MS). For each species, mean %parent remaining values at each time point were calculated from replicates raw data (analyte:IS peak area ratios) and used to determine in vitro t 1/2 and CLint.
Experiments were carried out using a robot-assisted (TECAN model Evo 200). Compound was incubated (1 µM final concentration) in buffer (100 mM potassium phosphate pH 7.4 with 3 mM MgCl2) containing hepatic microsomes (0.5 mg/mL final concentration) from multiple species, discretely, at 37 °C under constant orbital shaking. After 5 minutes (pre-incubation), reactions were initiated by addition of nicotinamide adenine dinucleotide phosphate (NADPH, 1 mM final concentration). At selected time intervals (0, 3, 7, 15, 25, and 45 minutes) post-addition of NADPH, aliquots (50 µL) were taken and placed into a 96-shallow-well plate containing ice cold acetonitrile (150 µL) with carbamazepine (IS, 50 nM). The plates were then centrifuged (3000 rcf at 4 °C) for 10 minutes. The supernatants were transferred to a new 96-shallow-well daughter plate and diluted (1:1 v/v) with water (Milli-Q filtered). The plates were then sealed in preparation for LC-MS/MS analysis (see below).
Raw LC-MS/MS peak area data generated from the assay samples were used to construct natural log-transformed %parent remaining vs. time plots (using t = 0 minute post-NADPH addition sample data as starting point set to 100%). In vitro compound half-life (t 1/2) values were obtained using the following […]
k is the slope from linear regression analysis of the natural log-transformed data (using means from Where all replicates at each time point). Resulting t 1/2 values were then used to calculate hepatic CLint values according to the following equation and with the use of species-specific scale-up factors for liver weight (grams) per total body weight (kg): […]
CLint = in vitro t1/2 x 0.5 mg microsomes x 1 gram liver x kg body wt aScale-up factors used are 45 (rat) and 20 (human).2
Predicted hepatic clearance (CLhep) was calculated using the following equation: […]
Qh represents hepatic blood flow (mL/min/kg): 21 for human, 70 for rat, and 90 for mouse.
Prepared samples were injected (10 µL each) onto an AB Sciex Triple Quad 4500 mass spectrometer system with an Agilent 1260 Infinity II pump and autosampler. Mass spectrometer conditions are described in Table S1. Quantitation of compounds was performed via AB Sciex Multiquant software using the raw analyte:IS peak area ratios. The typical detection range was 0.5 ng/mL to ≥ 5,000 ng/mL utilizing a quadratic equation regression with 1/x2 weighting. […]
Table S1. LC-MS/MS Conditions*
Mobile phase A 0.5% Formic Acid in Water
Mobile phase B 0.5% Formic Acid in Acetonitrile
Gradient Time % Mobile Phase B

Sodium Channel, Site 2 = experiment: Lead Profiling Screen – Eurofins Panlabs; format: binding, rat
Rolipram = experiment: Lead Profiling Screen – Eurofins Panlabs; format: binding, rat
Endothelin ETB = biological target: T5, Endothelin ETB (Homo sapiens, UniProt P24530); experiment: Lead Profiling Screen – Eurofins Panlabs; format: binding; conditions: read-out: % inh at 10 μM
T5 construct: Eurofins Panlabs (contract screen)

Glutamate, Kainate = experiment: Lead Profiling Screen – Eurofins Panlabs; format: binding, rat
[5] = MDCK-MDR1 permeability assay; format: in vitro ADME; conditions: dog

Chain of human M1 (P11229 whole entry): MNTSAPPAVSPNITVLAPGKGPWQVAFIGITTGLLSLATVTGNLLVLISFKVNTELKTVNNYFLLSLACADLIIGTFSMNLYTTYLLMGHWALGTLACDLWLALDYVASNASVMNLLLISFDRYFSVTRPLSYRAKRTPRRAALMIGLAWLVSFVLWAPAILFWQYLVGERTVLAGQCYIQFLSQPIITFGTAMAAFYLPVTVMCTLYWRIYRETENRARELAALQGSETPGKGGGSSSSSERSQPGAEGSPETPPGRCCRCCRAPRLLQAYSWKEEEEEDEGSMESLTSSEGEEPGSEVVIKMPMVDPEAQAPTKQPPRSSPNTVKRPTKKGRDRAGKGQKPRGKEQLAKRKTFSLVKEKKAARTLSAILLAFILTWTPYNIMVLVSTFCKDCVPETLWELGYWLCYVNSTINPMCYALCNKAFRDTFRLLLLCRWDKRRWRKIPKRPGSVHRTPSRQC
T5 sequence (P24530 27-442): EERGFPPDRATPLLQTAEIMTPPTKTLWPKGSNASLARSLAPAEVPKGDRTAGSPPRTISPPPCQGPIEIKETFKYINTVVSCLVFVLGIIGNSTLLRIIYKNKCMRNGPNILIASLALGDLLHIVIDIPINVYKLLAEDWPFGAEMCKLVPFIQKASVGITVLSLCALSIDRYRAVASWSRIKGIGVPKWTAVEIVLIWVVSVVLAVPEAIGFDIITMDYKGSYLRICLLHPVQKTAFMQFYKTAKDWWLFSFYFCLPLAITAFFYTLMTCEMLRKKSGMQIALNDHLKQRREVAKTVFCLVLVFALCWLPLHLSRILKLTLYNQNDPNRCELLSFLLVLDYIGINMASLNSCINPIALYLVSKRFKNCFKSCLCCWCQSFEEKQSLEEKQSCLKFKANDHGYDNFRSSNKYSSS
T1 sequence (P15823 whole entry): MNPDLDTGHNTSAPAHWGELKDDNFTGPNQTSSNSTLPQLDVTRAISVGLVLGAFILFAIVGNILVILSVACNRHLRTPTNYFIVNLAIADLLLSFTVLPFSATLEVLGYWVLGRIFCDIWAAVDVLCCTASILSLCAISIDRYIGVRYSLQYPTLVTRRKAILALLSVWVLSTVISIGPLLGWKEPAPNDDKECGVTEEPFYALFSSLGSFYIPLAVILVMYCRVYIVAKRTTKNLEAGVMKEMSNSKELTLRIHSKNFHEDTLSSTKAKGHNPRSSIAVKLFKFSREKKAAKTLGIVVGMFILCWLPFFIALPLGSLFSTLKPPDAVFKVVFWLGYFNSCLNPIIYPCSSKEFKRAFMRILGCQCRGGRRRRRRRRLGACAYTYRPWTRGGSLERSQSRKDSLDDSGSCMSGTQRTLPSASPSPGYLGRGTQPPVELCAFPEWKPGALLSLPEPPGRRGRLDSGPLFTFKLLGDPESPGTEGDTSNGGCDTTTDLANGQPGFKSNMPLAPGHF
Chain of Histamine H3 (Q9Y5N1 whole entry): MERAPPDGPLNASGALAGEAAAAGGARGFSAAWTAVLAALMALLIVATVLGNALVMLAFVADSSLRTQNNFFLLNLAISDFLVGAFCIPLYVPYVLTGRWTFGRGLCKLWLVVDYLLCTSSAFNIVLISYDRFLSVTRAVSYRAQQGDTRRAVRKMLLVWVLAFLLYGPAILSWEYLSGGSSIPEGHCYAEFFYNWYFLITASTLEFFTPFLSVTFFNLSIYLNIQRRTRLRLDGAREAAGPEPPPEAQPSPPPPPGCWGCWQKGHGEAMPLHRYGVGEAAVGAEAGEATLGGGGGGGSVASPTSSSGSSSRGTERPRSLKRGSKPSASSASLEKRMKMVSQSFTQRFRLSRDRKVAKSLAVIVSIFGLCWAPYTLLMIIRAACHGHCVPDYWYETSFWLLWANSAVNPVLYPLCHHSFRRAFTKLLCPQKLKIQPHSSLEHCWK
T2 sequence (P08913 whole entry): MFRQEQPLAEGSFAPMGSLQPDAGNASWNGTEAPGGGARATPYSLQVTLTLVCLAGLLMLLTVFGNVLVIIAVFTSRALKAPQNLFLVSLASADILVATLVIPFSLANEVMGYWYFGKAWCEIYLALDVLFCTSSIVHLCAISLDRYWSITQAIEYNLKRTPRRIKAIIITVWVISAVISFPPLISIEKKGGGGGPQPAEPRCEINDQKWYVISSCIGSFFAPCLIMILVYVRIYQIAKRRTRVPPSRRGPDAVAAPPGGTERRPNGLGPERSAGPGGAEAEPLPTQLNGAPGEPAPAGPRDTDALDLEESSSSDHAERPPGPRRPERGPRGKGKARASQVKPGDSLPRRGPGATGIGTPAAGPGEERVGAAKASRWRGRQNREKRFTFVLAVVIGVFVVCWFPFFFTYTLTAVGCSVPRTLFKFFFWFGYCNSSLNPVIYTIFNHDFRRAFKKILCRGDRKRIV
T3 sequence (Q9UBS5 15-961 limits assumed): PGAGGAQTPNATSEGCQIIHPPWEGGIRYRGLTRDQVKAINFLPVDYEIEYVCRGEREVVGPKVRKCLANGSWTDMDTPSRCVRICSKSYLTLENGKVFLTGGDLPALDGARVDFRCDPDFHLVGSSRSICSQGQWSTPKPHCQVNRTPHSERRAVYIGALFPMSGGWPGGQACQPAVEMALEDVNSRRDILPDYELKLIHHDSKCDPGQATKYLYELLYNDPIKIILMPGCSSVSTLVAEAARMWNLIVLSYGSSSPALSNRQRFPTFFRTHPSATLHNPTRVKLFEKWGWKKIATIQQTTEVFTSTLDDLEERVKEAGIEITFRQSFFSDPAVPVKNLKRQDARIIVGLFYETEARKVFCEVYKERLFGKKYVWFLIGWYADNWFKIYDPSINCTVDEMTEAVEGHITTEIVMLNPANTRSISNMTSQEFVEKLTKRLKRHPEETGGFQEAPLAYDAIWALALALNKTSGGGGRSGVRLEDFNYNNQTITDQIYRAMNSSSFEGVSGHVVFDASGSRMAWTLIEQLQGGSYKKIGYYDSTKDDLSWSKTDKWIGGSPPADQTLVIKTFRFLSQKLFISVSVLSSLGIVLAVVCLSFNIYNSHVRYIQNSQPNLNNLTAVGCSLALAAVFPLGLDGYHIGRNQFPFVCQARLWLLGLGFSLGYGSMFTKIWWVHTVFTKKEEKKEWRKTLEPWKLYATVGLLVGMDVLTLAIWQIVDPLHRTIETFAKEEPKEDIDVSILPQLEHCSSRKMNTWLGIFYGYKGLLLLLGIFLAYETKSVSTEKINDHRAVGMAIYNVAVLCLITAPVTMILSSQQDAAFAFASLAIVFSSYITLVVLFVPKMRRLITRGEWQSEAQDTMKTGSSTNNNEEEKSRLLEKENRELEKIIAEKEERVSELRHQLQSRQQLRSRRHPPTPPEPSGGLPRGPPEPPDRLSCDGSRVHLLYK
T3 sequence (O75899 42-941 partner): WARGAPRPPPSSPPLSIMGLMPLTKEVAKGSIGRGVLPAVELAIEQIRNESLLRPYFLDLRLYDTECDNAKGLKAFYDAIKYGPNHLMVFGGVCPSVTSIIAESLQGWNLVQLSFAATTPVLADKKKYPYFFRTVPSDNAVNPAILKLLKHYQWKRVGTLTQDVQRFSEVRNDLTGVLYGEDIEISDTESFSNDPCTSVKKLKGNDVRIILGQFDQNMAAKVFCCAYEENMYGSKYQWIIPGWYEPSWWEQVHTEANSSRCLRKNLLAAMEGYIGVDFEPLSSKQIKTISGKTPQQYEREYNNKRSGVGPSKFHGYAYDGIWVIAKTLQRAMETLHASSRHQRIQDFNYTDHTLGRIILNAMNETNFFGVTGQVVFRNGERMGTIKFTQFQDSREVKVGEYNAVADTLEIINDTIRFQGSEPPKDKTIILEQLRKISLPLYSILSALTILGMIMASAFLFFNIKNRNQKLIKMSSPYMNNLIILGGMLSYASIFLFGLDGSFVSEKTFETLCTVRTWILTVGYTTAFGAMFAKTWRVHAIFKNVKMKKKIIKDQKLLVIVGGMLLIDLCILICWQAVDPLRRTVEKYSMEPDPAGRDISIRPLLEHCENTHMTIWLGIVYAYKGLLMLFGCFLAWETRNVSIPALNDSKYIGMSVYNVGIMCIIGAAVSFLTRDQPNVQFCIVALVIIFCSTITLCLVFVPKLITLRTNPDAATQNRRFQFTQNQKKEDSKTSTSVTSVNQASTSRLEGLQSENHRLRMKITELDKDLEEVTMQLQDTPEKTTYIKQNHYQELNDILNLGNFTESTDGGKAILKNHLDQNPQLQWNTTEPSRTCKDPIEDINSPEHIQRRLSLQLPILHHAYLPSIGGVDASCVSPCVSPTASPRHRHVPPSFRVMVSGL
T4 sequence (P30542 whole entry): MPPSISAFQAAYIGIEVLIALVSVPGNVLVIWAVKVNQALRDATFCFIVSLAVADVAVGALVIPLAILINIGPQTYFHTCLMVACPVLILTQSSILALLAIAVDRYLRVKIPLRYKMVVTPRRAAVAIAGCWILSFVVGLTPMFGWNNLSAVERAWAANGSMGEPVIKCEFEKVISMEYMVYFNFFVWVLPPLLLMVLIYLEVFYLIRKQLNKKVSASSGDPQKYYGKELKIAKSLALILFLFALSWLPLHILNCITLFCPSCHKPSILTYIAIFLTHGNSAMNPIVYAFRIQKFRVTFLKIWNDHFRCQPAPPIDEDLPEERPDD
Chain of Leukotriene, Cysteinyl CysLT1 (Q9Y271 whole entry): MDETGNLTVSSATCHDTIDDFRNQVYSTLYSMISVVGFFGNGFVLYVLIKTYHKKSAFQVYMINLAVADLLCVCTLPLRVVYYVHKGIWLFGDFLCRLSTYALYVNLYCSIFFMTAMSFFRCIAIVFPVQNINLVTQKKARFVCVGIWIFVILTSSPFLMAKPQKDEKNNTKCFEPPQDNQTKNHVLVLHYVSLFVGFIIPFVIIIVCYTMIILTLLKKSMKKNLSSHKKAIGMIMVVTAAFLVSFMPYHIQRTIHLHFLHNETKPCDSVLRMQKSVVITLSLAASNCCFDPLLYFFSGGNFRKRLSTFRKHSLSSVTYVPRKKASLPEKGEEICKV

Which “% inh at 10 μM” value [1] does the source give for Cc1nc(C)c2c(n1)sc1c(NCc3ccc(C(C)(C)O)cc3)nccc12 [22g] here?
Its value is -2%.

And the inhibition at 10 µM (Adrenergic α1B)?
Its inhibition at 10 µM is 7%.

What about the inhibition at 10 µM (Adrenergic α2A) of the same molecule?
The inhibition at 10 µM was -9%.

And the inhibition at 10 µM [2]?
Its inhibition at 10 µM is 6%.

And the “human M1 %Ach Max” value (human M1)?
The value was “inactive”.

What about the “human M1 EC50” value (human M1) of the same molecule?
Its value is “inactive”.

What about the inhibition at 10 µM (GABAB1A) of the same molecule?
Its inhibition at 10 µM is 6%.

What about the inhibition at 10 µM (Adenosine A1) of the same molecule?
Its inhibition at 10 µM is 6%.

What about the “% inh at 10 μM” value (Nicotinic Acetylcholine) of the same molecule?
The value was -2%.

And the inhibition at 10 µM (Histamine H3)?
The inhibition at 10 µM was 25%.

And the fraction unbound at 6 h, 5 µM [3]?
The fraction unbound at 6 h, 5 µM was 0.024.

And the “% inh at 10 μM” value (Thyroid Hormone)?
The value was 1%.

And the CLint scaled at 1 µM ([4]; pH 7.4, rat liver microsomes)?
Its CLint scaled at 1 µM is 78 mL/min/kg.

What about the “CLhep, rat” value ([4]; predicted hepatic clearance from microsomal CLint) of the same molecule?
The value was 37 mL/min/kg.

And the “% inh at 10 μM” value (Sodium Channel, Site 2)?
The value was 3%.

And the “% inh at 10 μM” value (Rolipram)?
The value was 5%.

And the inhibition at 10 µM (Endothelin ETB)?
The inhibition at 10 µM was 6%.

And the “% inh at 10 μM” value (Glutamate, Kainate)?
Its value is -8%.

And the Papp A→B [5]?
Its Papp A→B is 47 ×10⁻⁶ cm/s.

And the Papp B→A [5]?
Its Papp B→A is 68 ×10⁻⁶ cm/s.
